Laboratory results published in ChEMBL document CHEMBL5131517 (ACS Med Chem Lett, 2022).

Assays:
Assay type in all cases: functional, cell-based
[1] = target: T1, 5-hydroxytryptamine receptor 2A (Homo sapiens, UniProt P28223); assay: Agonist activity at human 5HT2A receptor stably expressed in Flp-In-T-REx-293 cells assessed as increase in Gq-mediated calcium flux by Fluo-4 direct dye based FLIPR Tetra assay
[2] = target: T2, 5-hydroxytryptamine receptor 2C (Homo sapiens) (UniProt P28335); assay: Agonist activity at human 5HT2C receptor stably expressed in Flp-In-T-REx-293 cells assessed as maximal Gq-mediated calcium flux by Fluo-4 direct dye based FLIPR Tetra assay relative to control
T2 sequence (whole entry): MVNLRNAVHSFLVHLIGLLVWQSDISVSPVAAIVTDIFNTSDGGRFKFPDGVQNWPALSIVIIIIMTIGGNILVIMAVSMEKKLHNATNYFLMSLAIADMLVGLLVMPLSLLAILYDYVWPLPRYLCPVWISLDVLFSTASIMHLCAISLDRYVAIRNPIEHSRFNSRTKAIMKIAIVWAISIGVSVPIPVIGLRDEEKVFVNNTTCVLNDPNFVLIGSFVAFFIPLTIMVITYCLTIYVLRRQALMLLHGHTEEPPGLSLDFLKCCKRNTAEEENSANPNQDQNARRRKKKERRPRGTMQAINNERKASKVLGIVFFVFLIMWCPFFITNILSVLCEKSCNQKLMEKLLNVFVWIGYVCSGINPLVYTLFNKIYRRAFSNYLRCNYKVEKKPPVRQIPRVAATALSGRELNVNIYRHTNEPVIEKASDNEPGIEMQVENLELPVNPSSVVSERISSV

[3] = target: T1, 5-hydroxytryptamine receptor 2A; assay: Agonist activity at human 5HT2A receptor stably expressed in Flp-In-T-REx-293 cells assessed as maximal Gq-mediated calcium flux by Fluo-4 direct dye based FLIPR Tetra assay relative to control
[4] = target: T3, 5-hydroxytryptamine receptor 2C (Homo sapiens, UniProt P28335); assay: Agonist activity at human 5HT2C receptor stably expressed in Flp-In-T-REx-293 cells assessed as increase in Gq-mediated calcium flux by Fluo-4 direct dye based FLIPR Tetra assay
T3 sequence (P28335 whole entry): T2 sequence (whole entry)

T1 sequence (P28223 whole entry): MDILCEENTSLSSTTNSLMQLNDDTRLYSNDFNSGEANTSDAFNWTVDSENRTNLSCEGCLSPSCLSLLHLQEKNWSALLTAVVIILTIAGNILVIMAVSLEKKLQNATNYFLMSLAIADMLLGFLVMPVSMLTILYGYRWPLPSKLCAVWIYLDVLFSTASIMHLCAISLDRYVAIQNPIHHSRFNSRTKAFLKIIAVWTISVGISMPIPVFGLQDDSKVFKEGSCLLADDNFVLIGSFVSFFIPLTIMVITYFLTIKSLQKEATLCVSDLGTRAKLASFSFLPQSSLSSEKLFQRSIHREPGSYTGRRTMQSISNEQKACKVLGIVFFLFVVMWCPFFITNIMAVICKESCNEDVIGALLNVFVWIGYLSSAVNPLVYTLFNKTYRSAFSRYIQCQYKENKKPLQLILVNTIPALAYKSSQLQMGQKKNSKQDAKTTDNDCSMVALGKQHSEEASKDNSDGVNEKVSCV

Row | EC50 [1] | Emax ([2]; filed as agonist) | Emax ([3]; filed as agonist) | EC50 ([4]; read-out: EC50) | Emax [3] | EC50 ([4]; read-out: pEC50 (converted)) | Emax [2] | SMILES
1 | 207 nM | 82.9% | 41.6% | 284 nM |  |  |  | COc1ccccc1C1NCCc2c1[nH]c1ccc(Cl)cc21 (stereo not drawn)
2 | 269 nM |  |  |  | 21.5% |  |  | COc1ccccc1C1NCCc2c1[nH]c1ccc(O)cc21 (stereo not drawn)
3 | 724 nM | 48.6% |  | 602 nM | 23.7% |  |  | Clc1ccc2[nH]c3c(c2c1)CCNC3c1cccs1 (stereo not drawn)
4 | 481 nM | 89.1% | 63.1% | 256 nM |  |  |  | Cc1cccc(C2NCCc3c2[nH]c2ccc(Cl)cc32)c1 (stereo not drawn)
5 | 1570 nM | 97.1% | 47.6% | 754 nM |  |  |  | Oc1ccc2[nH]c3c(c2c1)CCNC3c1cc(Cl)ccc1O (stereo not drawn)
6 | 223 nM | 95.4% | 93.4% | 148 nM |  |  |  | Oc1cccc(C2NCCc3c2[nH]c2ccc(O)cc32)c1 (stereo not drawn)
7 | 0.5 nM | 114% | 103% | 0.8 nM |  |  |  | COc1ccc(C2NCCc3c2[nH]c2ccc(O)cc32)c(O)c1 (stereo not drawn)
8 | 455 nM | 104% | 85.9% | 194 nM |  |  |  | Oc1ccc2[nH]c3c(c2c1)CCNC3c1cc(Br)ccc1O (stereo not drawn)
9 | 346 nM | 97% | 44.7% | 294 nM |  |  |  | Oc1ccc2[nH]c3c(c2c1)CCNC3c1cccs1 (stereo not drawn)
10 | 177 nM | 117% | 100% | 44 nM |  |  |  | Clc1ccc2[nH]c3c(c2c1)CCNC3c1ccc(Cl)s1 (stereo not drawn)
11 | 2510 nM |  |  |  | 26.3% |  |  | Oc1ccc2[nH]c3c(c2c1)CCNC3c1ccccc1 (stereo not drawn)
12 | 51.7 nM | 103% | 92.7% | 15.3 nM |  |  |  | Oc1ccccc1C1NCCc2c1[nH]c1ccc(Cl)cc21 (stereo not drawn)
13 | 403 nM | 98.4% | 91.4% | 95.2 nM |  |  |  | Clc1ccc2[nH]c3c(c2c1)CCNC3c1ccccc1Br (stereo not drawn)
14 | 912 nM | 104% | 62.4% | 447 nM |  |  |  | Clc1ccc2[nH]c3c(c2c1)CCNC3c1ccc(Br)s1 (stereo not drawn)
15 | 849 nM |  | 57.1% | 2810 nM |  |  | 27.3% | Clc1ccc2[nH]c3c(c2c1)CCNC3c1ccncc1Cl (stereo not drawn)
16 | 159 nM | 99.4% | 80% | 152 nM |  |  |  | Oc1ccc(C2NCCc3c2[nH]c2ccc(O)cc32)cc1 (stereo not drawn)
17 | 8000 nM |  |  | 1160 nM | 23.2% |  | 13.9% | Fc1ccccc1C1NCCc2c1[nH]c1ccc(Cl)cc21 (stereo not drawn)
18 | 23 nM | 102% | 91.4% | 13.2 nM |  |  |  | Oc1ccc2[nH]c3c(c2c1)CCNC3c1ccccc1F (stereo not drawn)
19 | 216 nM | 101% | 88.4% | 77 nM |  |  |  | Oc1ccc2[nH]c3c(c2c1)CCNC3c1cc(F)ccc1O (stereo not drawn)
20 | 151 nM | 105% | 88% | 39 nM |  |  |  | Clc1ccc2[nH]c3c(c2c1)CCNC3c1cc2ccccc2s1 (stereo not drawn)
21 | 244 nM | 99.1% | 60.9% | 191 nM |  |  |  | Cc1cccc(C2NCCc3c2[nH]c2ccc(O)cc32)c1 (stereo not drawn)
22 | 364 nM | 100% | 67.8% | 173 nM |  |  |  | Oc1ccc2[nH]c3c(c2c1)CCNC3c1ccc(Br)cc1O (stereo not drawn)
23 | 93.8 nM | 99.4% | 103% | 105 nM |  |  |  | Oc1ccc(C2NCCc3c2[nH]c2ccc(Cl)cc32)cc1 (stereo not drawn)
24 | 12.8 nM | 109% | 95.3% | 12.6 nM |  |  |  | Clc1ccc2[nH]c3c(c2c1)CCNC3c1ccccc1Cl (stereo not drawn)
25 | 312 nM | 95% |  | 1130 nM | 11.2% |  |  | Cc1ccc(C2NCCc3c2[nH]c2ccc(O)cc32)cc1 (stereo not drawn)
26 | 1.5 nM | 102% | 91.2% | 1.9 nM |  |  |  | Oc1ccc(C2NCCc3c2[nH]c2ccc(Cl)cc32)c(O)c1 (stereo not drawn)
27 | 303 nM | 97.2% | 94.1% | 62.5 nM |  |  |  | Cc1ccc(C2NCCc3c2[nH]c2ccc(Cl)cc32)cc1 (stereo not drawn)
28 | 1420 nM |  |  |  | 14.3% |  |  | Oc1ccc2[nH]c3c(c2c1)CCNC3c1ccccc1Cl (stereo not drawn)

The remaining lines, values behind:

Row | SMILES | EC50 [1] | Emax ([2]; filed as agonist) | Emax ([3]; filed as agonist) | EC50 ([4]; read-out: EC50) | Emax [3] | EC50 ([4]; read-out: pEC50 (converted)) | Emax [2]
29 | Fc1ccc2[nH]c3c(c2c1)CCNC3c1cncnc1 (stereo not drawn) |  | 101% | 95.1% |  |  |  | 
30 | Oc1ccc2[nH]c3c(c2c1)CCNC3CCc1ccccc1 (stereo not drawn) | 139 nM |  | 45.8% |  |  |  | 
31 | CCC1NCCc2c1[nH]c1ccc(Cl)cc21 (stereo not drawn) | 398 nM | 80.8% | 74.3% | 7940 nM |  |  | 
32 | COc1cc(OC)c(C2NCCc3c2[nH]c2ccc(O)cc32)cc1OC (stereo not drawn) | 3.8 nM | 109% | 102% | 7.6 nM |  |  | 
33 | Fc1ccc2[nH]c3c(c2c1)CCNC3c1ccc2ccccc2c1 (stereo not drawn) | 195 nM | 103% | 79.1% | 186 nM |  |  | 
34 | Oc1ccc2[nH]c3c(c2c1)CCNC3Cc1ccccc1 (stereo not drawn) | 288 nM | 100% | 59.2% | 481 nM |  |  | 
35 | COc1ccc2cc(C3NCCc4c3[nH]c3ccc(F)cc43)ccc2c1 (stereo not drawn) | 2820 nM | 76.3% |  | 3390 nM | 30.5% |  | 
36 | Clc1ccc2[nH]c3c(c2c1)CCNC3c1ccccc1 (stereo not drawn) | 248 nM | 98% | 83.9% | 68.9 nM |  |  | 
37 | Cc1ccc(C2NCCc3c2[nH]c2ccc(F)cc32)cc1 (stereo not drawn) | 208 nM | 85.4% |  | 2060 nM | 39.9% |  | 
38 | Fc1ccc2[nH]c3c(c2c1)CCNC3c1ccccc1Cl (stereo not drawn) | 278 nM | 88.1% |  | 872 nM | 28.1% |  | 
39 | Oc1ccc2[nH]c3c(c2c1)CCNC3c1ccccc1O (stereo not drawn) |  | 103% |  |  | 26.9% |  | 
40 | CCCC1NCCc2c1[nH]c1ccc(F)cc21 (stereo not drawn) | > 10000 nM |  |  | > 10000 nM |  |  | 
41 | Oc1ccc2[nH]c3c(c2c1)CCNC3c1cncnc1 (stereo not drawn) | 800 nM | 83.3% | 89.3% |  |  | 2950 nM | 
42 | Fc1ccc2[nH]c3c(c2c1)CCNC3c1nccs1 (stereo not drawn) |  |  |  | 1260 nM |  |  | 39.4%
43 | Cc1cccc(C2NCCc3c2[nH]c2ccc(F)cc32)c1 (stereo not drawn) | 160 nM | 114% |  | 306 nM | 39.9% |  | 
44 | Cc1noc(C)c1C1NCCc2c1[nH]c1ccc(Cl)cc21 (stereo not drawn) | 513 nM | 104% | 84.5% | 191 nM |  |  | 
45 | Fc1ccc2[nH]c3c(c2c1)CCNC3c1ccccc1Br (stereo not drawn) | 98 nM | 75.1% |  | 2100 nM | 10.5% |  | 
46 | Oc1c(Br)cccc1C1NCCc2c1[nH]c1ccc(F)cc21 (stereo not drawn) | 116 nM | 109% | 93.1% | 66.5 nM |  |  | 

Row | SMILES | EC50 [1] | Emax ([2]; filed as agonist) | Emax ([3]; filed as agonist) | EC50 ([4]; read-out: EC50) | Emax [3] | EC50 ([4]; read-out: pEC50 (converted)) | Emax [2]
47 | COc1ccc2cc(C3NCCc4c3[nH]c3ccc(Cl)cc43)ccc2c1 (stereo not drawn) | 1320 nM | 93.7% | 66.8% | 1060 nM |  |  | 
48 | COc1ccccc1C1NCCc2c1[nH]c1ccc(F)cc21 (stereo not drawn) | 126 nM | 94.3% | 43.1% | 75.4 nM |  |  | 
49 | Fc1ccc2[nH]c3c(c2c1)CCNC3c1cc2ccccc2s1 (stereo not drawn) | 1550 nM | 110% | 40% | 912 nM |  |  | 
50 | Clc1ccc2[nH]c3c(c2c1)CCNC3C1CCOCC1 (stereo not drawn) | 371 nM | 63.8% | 42.8% | 295 nM |  |  | 
51 | Fc1ncccc1C1NCCc2c1[nH]c1ccc(Cl)cc21 (stereo not drawn) | 346 nM | 75.2% | 56.1% | 1060 nM |  |  | 
52 | Oc1ccc2[nH]c3c(c2c1)CCNC3C1CCCCC1 (stereo not drawn) | 281 nM |  | 74.1% | 959 nM |  |  | 28.4%
53 | CCCC1NCCc2c1[nH]c1ccc(Cl)cc21 (stereo not drawn) | 646 nM |  | 50.1% | > 10000 nM |  |  | 
54 | Oc1cccc(C2NCCc3c2[nH]c2ccc(F)cc32)c1 (stereo not drawn) | 208 nM | 123% | 83.2% | 130 nM |  |  | 
55 | Fc1ccc2[nH]c3c(c2c1)CCNC3c1ccccc1F (stereo not drawn) | 302 nM | 81% | 48.9% | 1010 nM |  |  | 
56 | Fc1ccc2[nH]c3c(c2c1)CCNC3C1CCOCC1 (stereo not drawn) | 354 nM | 42.3% |  | 891 nM | 34.1% |  | 
57 | Clc1ccc2[nH]c3c(c2c1)CCNC3c1ccc2ccccc2c1 (stereo not drawn) | 15.1 nM | 102% | 96.5% | 24.5 nM |  |  | 
58 | Clc1ccc2[nH]c3c(c2c1)CCNC3Cc1ccccc1 (stereo not drawn) | 2620 nM |  | 56.1% |  |  |  | 
59 | Fc1ccc2[nH]c3c(c2c1)CCNC3c1ccccc1 (stereo not drawn) | 88.5 nM | 102% | 86.5% | 22.4 nM |  |  | 
60 | Fc1ccc2[nH]c3c(c2c1)CCNC3c1cccs1 (stereo not drawn) | 409 nM | 102% |  | 147 nM | 36.4% |  | 
61 | Clc1ccc2[nH]c3c(c2c1)CCNC3CCc1ccccc1 (stereo not drawn) | 64 nM | 98.5% | 101% | 15.8 nM |  |  | 
62 | Fc1ccc2[nH]c3c(c2c1)CCNC3Cc1ccccc1 (stereo not drawn) | 1330 nM |  | 44.4% |  |  |  | 
63 | NCCc1c[nH]c2ccc(O)cc12 |  |  | 100% |  |  |  | 
